Experimental findings from patent publication US8987281B2, “Methods of treating cancer” (Endocyte, Inc., priority 2010, dated 2015) are described below.

This assay relates to KB tumors. The assay can be described thus: In vivo antitumor experiments, s.c. KB tumors in nu/nu mice. The settings on record: i.v., EC145 1 μmol/kg/injection TIW 2 weeks. The protocol: Four to six week-old female nu/nu mice (Charles River, Wilmington, Mass.) or six to seven week-old female Balb/c mice (Harlan Sprague Dawley, Inc., Indianapolis, Ind.) were maintained on a standard 12 h light-dark cycle and fed ad libitum with folate-deficient chow (Harlan diet #TD00434, Harlan Teklad, Madison, Wis.) for the duration of the experiment. FR-positive human nasopharyngeal KB cells and human ovarian IGROV cells were grown continuously as a monolayer, using folate-free RPMI medium (FFRPMI) containing 10% heat-inactivated fetal calf serum (HIFCS) at 37° C. in a 5% CO2/95% air-humidified atmosphere with no antibiotics. Syngeneic FR-positive Madison 109 (M109) lung carcinoma cells were generated from M109 tumors and cultured for a few days in FFRPMI containing 10% HIFCS for a few days before implantation in mice. KB cells (1×10^6 per nu/nu mouse), M109 cells (1×10^6 per Balb/c mouse), IGROV cells (4×10^6 per nu/nu mouse) in 100 μL were injected in the subcutis of the dorsal medial area. Mice were divided into groups of five, and test articles were freshly prepared and injected through the lateral tail vein under sterile conditions in a volume of 200 μL of phosphate-buffered saline (PBS). […] The mice in the control groups received no treatment. Growth of each s.c. tumor was followed by measuring the tumor three times per week during treatment and twice per week thereafter until a volume of 1500 mm^3 was reached. Tumors were measured in two perpendicular directions using Vernier calipers, and their volumes were calculated as 0.5×L×W^2, where L=measurement of longest axis in mm and W=measurement of axis perpendicular to L in mm. As a general measure of toxicity, changes in body weights were determined on the same schedule as tumor volume measurements. Survival of animals was monitored daily. Animals that were moribund (or unable to reach food or water) were euthanized by CO2 asphyxiation. All in vivo studies were performed in accordance with the American Accreditation Association of Laboratory Animal Care guidelines.
For individual tumors, a partial response (PR) was defined as volume regression>50% but with measurable tumor (>2 mm^3) remaining at all times. Complete response (CR) was defined as a disappearance of measurable tumor mass (<2 mm^3) at some point until the end of the study. Cures were defined as CR's without tumor re-growth within the study time frame.
See FIG. 1 for tumor response and FIG. 2 for weight change during the treatment period.
See FIG. 3 for tumor response and FIG. 4 for weight change during the treatment period.
See FIG. 5 for tumor response and FIG. 6 for weight change during the treatment period.

Where [1] appears, read: KB tumors 144-212 mm^3, five animals per group, Docetaxel 10 mg/kg TIW 1 week (FIG. 1).
Setting [2] is: KB tumors 111-173 mm^3, five animals per group, Paclitaxel 20 mg/kg TIW in Cremophor/ethanol 1 week (FIG. 5).

Structures are written as SMILES.

For `CC(=O)O[C@@]12CO[C@@H]1C[C@H](O)[C@@]1(C)C(=O)[C@H](O)C3=C(C)[C@@H](OC(=O)[C@H](O)[C@@H](NC(=O)OC(C)(C)C)c4ccccc4)C[C@@](O)([C@@H](OC(=O)c4ccccc4)[C@H]21)C3(C)C` [Docetaxel, docetaxel], under setting [1], the Cures entry is recorded as “no”, the complete responses result is recorded as “no” and the partial responses entry is given as “no”.
With `CC(=O)O[C@H]1C(=O)[C@@]2(C)[C@H]([C@H](OC(=O)c3ccccc3)[C@]3(O)C[C@H](OC(=O)[C@H](O)[C@@H](NC(=O)c4ccccc4)c4ccccc4)C(C)=C1C3(C)C)[C@]1(OC(C)=O)CO[C@@H]1C[C@@H]2O` [Paclitaxel, paclitaxel], under setting [2], the Cures is listed as 3 and the complete responses turned out to be 2.
